Read-outs that look alike come from different tables or passages of the source.
How the values were obtained:
α1-adrenergic receptor = test: [3H]prazosin binding (α1-receptors), rat cerebral cortices; settings: 0.35 nM [3H]prazosin, read-out: Binding affinity for the α1-adrenergic receptor, Ki
Experimental: [^3H]prazosin binding (α1-receptors):
Rat cerebral cortices were homogenized in 50 volumes of ice-cold 50 mM Tris-HCl pH 7.4. The homogenates were centrifuged at 48,000 x g for 10 minutes, and the pellets were resuspended in the same volume of ice-cold buffer, centrifuged, and resuspended two more times. The final pellets were resuspended in 100 volumes of 50 mM Tris-HCl, pH 7.4, containing 0.1 % ascorbic acid and 10 µM pargyline. […] Non-specific binding was determined in the presence of 10 µM phentolamine. The incubations were terminated by rapid filtration through Whatman GF/B filters using a Brandel cell harvester, after which the filters were washed with 3x3 ml of ice-cold buffer. The radioactivity retained on the filters was determined by liquid scintillation counting.

[1] = system: rhythmic bladder voiding contractions; test: Volume-induced rhythmic bladder voiding contractions in anaesthetized rats; assay type: in vivo; settings: for AMPLITUDE mm Hg before treatment / FREQUENCY No. contr./15 min before treatment: baseline; for AMPLITUDE mm Hg before treatment / AMPLITUDE mm Hg after treatment: animals with frequency reduction <50%; for AMPLITUDE mm Hg before treatment / FREQUENCY No. contr./15 min before treatment / AMPLITUDE mm Hg after treatment / FREQUENCY No. contr./15 min after treatment: mean±S.E.; for BLADDER CONTRACTIONS Disappearance time: duration of bladder quiescence, mean (S.E. in next cell); for ED (10 min disappearance of contractions) / ED50: Rattus norvegicus, iv; for ED (10 min disappearance of contractions): extrapolated dose inducing 10 min of disappearance of the contractions, linear regression
Experimental: Female Sprague Dawley rats weighing 225-275 g (Crl: CD° BR, Charles River Italia) were used. The animals were housed with free access to food and water and were maintained on a forced 12 h alternating light-dark cycle at 22-24°C for at least one week, except during the experiment. The activity on the rhythmic bladder voiding contractions was evaluated according to the method of Dray (J. Pharmcol. Methods, 13:157, 1985), with some modifications as in Guarneri (Phannacol. Res., 27:173, 1993). […] The catheter was tied in place with a ligature around the external urethral orifice and was connected with conventional pressure transducers (Statham P23 ID/P23 XL). […] The bladder was then filled via the recording catheter by incremental volumes of warm (37°C) saline until reflex bladder voiding contractions occurred (usually 0.8-1.5 ml). Two parameters were recorded from the cystometrogram: the frequency of voiding contractions, calculated by counting the number of peaks/15 min of observation, and the mean amplitude of these contractions (mean height of the peaks in mmHg) in the same time period. For intravenous (i. v. ) injection of bioactive compounds, a PE 50 polyethylene tubing filled with physiological saline was inserted into the jugular vein.
Bioactivity was assessed in individual animals (using 6-10 rats per dose), by recording the number and height of the peaks for 15 min after drug injection and comparing them with those previously recorded for 15 min after the intravenous administration of vehicle alone. […] The statistical significance of changes in frequency and amplitude before and after treatment was assessed by Student's t test for paired data. Changes showing a probability P<0.01 were considered significant.
An all-or-none criterion was also used to compare bioactivity in terms of ED50 values. Rats showing a treatment-related change of ≥30% relative to the basal value were considered to be positive. Quantal dose-response curves and ED50 values were evaluated by the method of Bliss (J. Pharm. Pharmacol., 11:192, 1938).
The rapid distension of the urinary bladder in urethane-anaesthetized rats produced a series of rhythmic bladder voiding contractions whose characteristics have been described (Maggie et al., Brain Res., 380, 83, 1986; Maggi, et al., J. Pharmacol. Exp. Ther., 230, 500, 1984). The frequency of these contractions is related to the sensory afferent arm of reflex micturition and to the integrity of the micturition centre, while their amplitude is a property of the efferent arm of the reflex (Maggi et al., J. Pharmacol. Meth., 15, 157, 1986; Maggi et al., Brain Res.. 415, 1, 1987; Maggi et al., Naun. Schmied. Arch. Pharmacol., 332, 276, 1986; Maggi et al., J. Urol., 136, 696, 1986).

[2] = i.v., inhibition of frequency of rhythmic bladder voidings (ED50)

SMILES	Ki (α1-adrenergic receptor)	AMPLITUDE mm Hg before treatment ([1]; 1 µg/kg i.v. group)	FREQUENCY No. contr./15 min before treatment ([1]; 1 µg/kg i.v. group)	AMPLITUDE mm Hg after treatment ([1]; 1 µg/kg i.v.)	BLADDER CONTRACTIONS Disappearance time ([1]; 1 µg/kg i.v.)	FREQUENCY No. contr./15 min after treatment ([1]; 1 µg/kg i.v.)	AMPLITUDE mm Hg before treatment ([1]; 3 µg/kg i.v. group)	FREQUENCY No. contr./15 min before treatment ([1]; 3 µg/kg i.v. group)	AMPLITUDE mm Hg after treatment ([1]; 3 µg/kg i.v.)	BLADDER CONTRACTIONS Disappearance time ([1]; 3 µg/kg i.v.)	FREQUENCY No. contr./15 min after treatment ([1]; 3 µg/kg i.v.)	AMPLITUDE mm Hg before treatment ([1]; 10 µg/kg i.v. group)	FREQUENCY No. contr./15 min before treatment ([1]; 10 µg/kg i.v. group)	AMPLITUDE mm Hg after treatment ([1]; 10 µg/kg i.v.)	BLADDER CONTRACTIONS Disappearance time ([1]; 10 µg/kg i.v.)	FREQUENCY No. contr./15 min after treatment ([1]; 10 µg/kg i.v.)	AMPLITUDE mm Hg before treatment ([1]; 30 µg/kg i.v. group)	FREQUENCY No. contr./15 min before treatment ([1]; 30 µg/kg i.v. group)	AMPLITUDE mm Hg after treatment ([1]; 30 µg/kg i.v.)	FREQUENCY No. contr./15 min after treatment ([1]; 30 µg/kg i.v.)	further results
COc1ccccc1N1CCN(CCN(C(=O)C2CCCCC2)c2ccccn2)CC1 [Compound A, N-{2-[4-(2-methoxyphenyl)-1-piperazinyl]-ethyl}-N-(2-pyridyl)-cyclohexanecarboxamide]	296 nM	25.4±2.0 mm Hg	11.7±1.0 No. contr./15 min	23.1±1.9 mm Hg	1.34 min	11.6±1.3 No. contr./15 min	25.1±2.2 mm Hg	11.5±0.7 No. contr./15 min	21.7±2.0 mm Hg	2.15 min	9.1±1.0 No. contr./15 min	26.0±3.8 mm Hg	11.5±1.5 No. contr./15 min	22.3±3.8 mm Hg	8.13 min	5.9±1.6 No. contr./15 min	28.5±2.5 mm Hg	11.8±0.7 No. contr./15 min	25.0±4.0 mm Hg	3.8±0.7 No. contr./15 min	BLADDER CONTRACTIONS Disappearance time ([1]; 30 µg/kg i.v.): 8.87 min; AMPLITUDE mm Hg before treatment ([1]; 100 µg/kg i.v. group): 28.0±4.6 mm Hg; FREQUENCY No. contr./15 min before treatment ([1]; 100 µg/kg i.v. group): 12.0±0.9 No. contr./15 min; AMPLITUDE mm Hg after treatment ([1]; 100 µg/kg i.v.): 25.7±2.9 mm Hg; BLADDER CONTRACTIONS Disappearance time ([1]; 100 µg/kg i.v.): 12.56 min; FREQUENCY No. contr./15 min after treatment ([1]; 100 µg/kg i.v.): 4.1±1.1 No. contr./15 min; FREQUENCY No. contr./15 min before treatment ([1]; 300 µg/kg i.v. group): 9.5±0.6 No. contr./15 min; BLADDER CONTRACTIONS Disappearance time ([1]; 300 µg/kg i.v.): 13.37 min; FREQUENCY No. contr./15 min after treatment ([1]; 300 µg/kg i.v.): 2.2±0.5 No. contr./15 min; ED (10 min disappearance of contractions) [1]: 0.037 mg/kg; maximal change of amplitude of the rhythmic bladder voidings ([1]; i.v., no dose-dependence observed): about 13%
CCN(CC)CC#CCOC(=O)C(O)(c1ccccc1)C1CCCCC1 (centres unmarked) [Oxybutynin, oxybutynin]																	26.7±2.7 mm Hg	14.8±1.9 No. contr./15 min	23.3±2.5 mm Hg	15.5±2.3 No. contr./15 min	AMPLITUDE mm Hg before treatment ([1]; 100 µg/kg i.v. group): 25.0±3.7 mm Hg; FREQUENCY No. contr./15 min before treatment ([1]; 100 µg/kg i.v. group): 13.3±1.1 No. contr./15 min; AMPLITUDE mm Hg after treatment ([1]; 100 µg/kg i.v.): 18.7±2.7 mm Hg; FREQUENCY No. contr./15 min after treatment ([1]; 100 µg/kg i.v.): 14.7±1.0 No. contr./15 min; AMPLITUDE mm Hg before treatment ([1]; 300 µg/kg i.v. group): 20.9±1.7 mm Hg; FREQUENCY No. contr./15 min before treatment ([1]; 300 µg/kg i.v. group): 10.1±0.7 No. contr./15 min; AMPLITUDE mm Hg after treatment ([1]; 300 µg/kg i.v.): 13.6±0.8 mm Hg; FREQUENCY No. contr./15 min after treatment ([1]; 300 µg/kg i.v.): 8.8±0.8 No. contr./15 min; AMPLITUDE mm Hg before treatment ([1]; 1000 µg/kg i.v. group): 20.3±2.4 mm Hg; FREQUENCY No. contr./15 min before treatment ([1]; 1000 µg/kg i.v. group): 9.7±0.8 No. contr./15 min; AMPLITUDE mm Hg after treatment ([1]; 1000 µg/kg i.v.): 11.8±1.2 mm Hg; FREQUENCY No. contr./15 min after treatment ([1]; 1000 µg/kg i.v.): 9.5±0.8 No. contr./15 min; AMPLITUDE mm Hg before treatment ([1]; 3000 µg/kg i.v. group): 18.0±1.4 mm Hg; FREQUENCY No. contr./15 min before treatment ([1]; 3000 µg/kg i.v. group): 10.0±0.7 No. contr./15 min; AMPLITUDE mm Hg after treatment ([1]; 3000 µg/kg i.v.): 10.8±1.0 mm Hg; FREQUENCY No. contr./15 min after treatment ([1]; 3000 µg/kg i.v.): 9.9±1.5 No. contr./15 min; ED50 ([1]; read-out: ED50 AMPLITUDE (and 95% confidence limits)): 0.24 mg/kg
O=C(C1CCCCC1)N(CCN1CCN(c2cccc3[nH]ccc23)CC1)c1ccccn1 [Compound B, N-{2-[4-(4-Indolyl)-1-piperazinyl]-ethyl}-N-(2-pyridyl)-cyclohexanecarboxamide]	458 nM	26.5±4.3 mm Hg	11.7±1.5 No. contr./15 min	22.7±5.1 mm Hg	4.33 min	8.7±1.3 No. contr./15 min	33.7±2.4 mm Hg	9.7±0.8 No. contr./15 min	25.3±1.2 mm Hg	7.58 min	4.7±1.1 No. contr./15 min	19.0 mm Hg	11.7±1.7 No. contr./15 min	17.0 mm Hg	10.00 min	4.2±0.9 No. contr./15 min		12.0±1.1 No. contr./15 min		4.5±1.4 No. contr./15 min	AMPLITUDE mm Hg before treatment ([1]; 0.3 µg/kg i.v. group): 31.0±3.7 mm Hg; FREQUENCY No. contr./15 min before treatment ([1]; 0.3 µg/kg i.v. group): 10.7±1.4 No. contr./15 min; AMPLITUDE mm Hg after treatment ([1]; 0.3 µg/kg i.v.): 27.7±4.1 mm Hg; BLADDER CONTRACTIONS Disappearance time ([1]; 0.3 µg/kg i.v.): 1.10 min; FREQUENCY No. contr./15 min after treatment ([1]; 0.3 µg/kg i.v.): 11.3±1.7 No. contr./15 min; BLADDER CONTRACTIONS Disappearance time ([1]; 30 µg/kg i.v.): 8.85 min; ED (10 min disappearance of contractions) [1]: 0.009 mg/kg; ED50 ([1]; read-out: ED50 FREQUENCY (and 95% confidence limits), i.v., quantal criterion (change ≥30% relative to basal value)): 0.001 mg/kg; fold more active than NAN-190 [1, 2]: 46 fold; fold more active than flavoxate [1, 2]: 2650 fold

From patent EP0906100B1, “USE OF 5-HT 1A? RECEPTOR ANTAGONISTS FOR THE TREATMENT OF URINARY INCONTINENCE” (RECORDATI S.A., priority 1996, dated 1997)
